Laboratory results: ChEMBL document CHEMBL1155694, “Sesquiterpene alkaloids from Tripterygium hypoglaucum and Tripterygium wilfordii: a new class of potent anti-HIV agents” (J Nat Prod, 2000)
Converted amounts (≈) assume the structure as drawn. The source made the active and inactive calls. The calls are words filed in the database; no cut-off is given here.

Key:
H9 = experiment: Cytotoxicity against human H9 cells; assay type: cell-based
[1] = tested on: Human immunodeficiency virus 1; experiment: Antiviral activity against HIV1 in human H9 cells assessed as inhibition of viral replication; assay type: functional, organism-based; conditions: for EC50: Human immunodeficiency virus 1, H9
[2] = Therapeutic index, ratio of IC50 for human H9 cells to EC50 for HIV1; assay type: cell-based; conditions: read-out: Ratio IC50/EC50

Row | SMILES | IC50 (H9) | EC50 [1] | selectivity ratio [2] | Activity [1]
1 | COC(=O)C[C@@H]1C(=O)CC[C@H](C)C(=O)O[C@@H]2[C@@H]3[C@@H](OC(C)=O)[C@@]45O[C@@]3(C)COC(=O)c3cnccc3[C@@H](C)[C@@](C)(O)C(=O)O[C@@H]([C@H](OC(C)=O)[C@H](OC(C)=O)[C@@]4(COC1=O)[C@@H]2OC(C)=O)[C@]5(C)O | > 100 µg/mL | < 0.1 µg/mL | > 1000 | –
2 | CC(=O)OC[C@]12[C@H](OC(C)=O)[C@H](OC(C)=O)[C@@H]3[C@@H](OC(=O)c4ccccc4)[C@@]14O[C@@]3(C)COC(=O)c1cccnc1C(C)C(C)C(=O)O[C@@H]([C@H](OC(C)=O)[C@@H]2OC(C)=O)[C@]4(C)O (some centres undefined) | 56.8 µg/mL (≈ 65.4 µM) | 0.9 µg/mL (≈ 1.04 µM) | 63.4 | –
3 | CC(=O)OC[C@]12[C@H](OC(C)=O)[C@H](OC(C)=O)[C@@H]3[C@@H](OC(C)=O)[C@@]14O[C@@]3(C)COC(=O)c1cccnc1C(C)C(C)C(=O)O[C@@H]([C@H](OC(C)=O)[C@@H]2OC(C)=O)[C@]4(C)O (some centres undefined) [EUONYMINE] | 22.8 µg/mL (≈ 28.3 µM) | 0.203 µg/mL (≈ 0.252 µM) | 113 | –
4 | CC(=O)OC[C@]12[C@H](OC(C)=O)C(=O)[C@@H]3[C@@H](OC(C)=O)[C@@]14O[C@@]3(C)COC(=O)c1cccnc1C(C)C(C)C(=O)O[C@@H]([C@H](OC(C)=O)[C@@H]2OC(C)=O)[C@]4(C)O (some centres undefined) [EVONINE] | 21.2 µg/mL (≈ 27.8 µM) | 0.503 µg/mL (≈ 0.66 µM) | 42.1 | –
5 | CC(=O)OC[C@]12[C@H](OC(C)=O)[C@H](OC(C)=O)[C@@H]3[C@@H](OC(C)=O)[C@@]14O[C@@]3(C)COC(=O)c1cccnc1C(C)C(C)C(=O)O[C@@H]([C@H](OC(=O)c1ccccc1)[C@@H]2OC(C)=O)[C@@]4(C)O (some centres undefined) [FORRESTINE] | > 100 µg/mL | 0.48 µg/mL (≈ 0.553 µM) | > 208 | –
6 | CC(=O)O[C@@H]1[C@@H]2[C@@H](OC(C)=O)[C@@]34O[C@@]2(C)COC(=O)c2cnccc2C(C)C(C)(O)C(=O)O[C@@H]([C@H](OC(C)=O)[C@H](OC(C)=O)[C@@]3(COC(=O)c2ccco2)[C@@H]1OC(C)=O)[C@]4(C)O (some centres undefined) [HYPOGLAUNINE A] | > 100 µg/mL | 0.13 µg/mL (≈ 0.149 µM) | > 769 | –
7 | CC(=O)OC[C@]12[C@H](OC(C)=O)[C@H](OC(C)=O)[C@@H]3[C@@H](OC(C)=O)[C@@]14O[C@@]3(C)COC(=O)c1cnccc1C(C)C(C)(O)C(=O)O[C@@H]([C@H](OC(=O)c1ccco1)[C@@H]2OC(C)=O)[C@]4(C)O (some centres undefined) [HYPOGLAUNINE B] | > 100 µg/mL | 0.1 µg/mL (≈ 0.114 µM) | > 1000 | –
8 | CC(=O)O[C@@H]1[C@@H]2[C@@H](OC(C)=O)[C@@]34O[C@@]2(C)COC(=O)c2cnccc2C(C)C(C)C(=O)O[C@@H]([C@H](OC(C)=O)[C@H](OC(C)=O)[C@@]3(COC(=O)c2ccco2)[C@@H]1OC(C)=O)[C@]4(C)O (some centres undefined) [HYPOGLAUNINE D] | 22.2 µg/mL (≈ 25.9 µM) | – | – | inactive
9 | CC(=O)OC[C@]12[C@H](OC(C)=O)[C@H](OC(C)=O)[C@@H]3[C@@H](OC(=O)c4ccco4)[C@@]14O[C@@]3(C)COC(=O)c1cccnc1C(C)C(C)C(=O)O[C@@H]([C@H](OC(C)=O)[C@@H]2OC(C)=O)[C@]4(C)O (some centres undefined) [HYPONINE A] | 27.7 µg/mL (≈ 32.3 µM) | 1 µg/mL (≈ 1.17 µM) | 27.7 | –
10 | CC(=O)O[C@@H]1[C@H](OC(C)=O)[C@@]2(COC(=O)c3ccco3)[C@H](OC(C)=O)C(=O)[C@@H]3[C@@H](OC(C)=O)[C@@]24O[C@@]3(C)COC(=O)c2cccnc2C(C)C(C)C(=O)O[C@@H]1[C@]4(C)O (some centres undefined) [HYPONINE B] | > 100 µg/mL | 0.1 µg/mL (≈ 0.123 µM) | > 1000 | –
11 | CC(=O)OC[C@]12[C@H](OC(C)=O)[C@H](OC(C)=O)[C@@H]3[C@@H](OC(=O)c4ccccc4)[C@@]14O[C@@]3(C)COC(=O)c1cccnc1C(C)C(C)C(=O)O[C@@H]([C@H](OC(=O)c1cccnc1)[C@@H]2OC(C)=O)[C@]4(C)O (some centres undefined) [HYPONINE D] | 20.2 µg/mL (≈ 21.7 µM) | – | – | inactive
12 | CC(=O)OC[C@]12[C@H](OC(C)=O)[C@H](OC(=O)c3cccnc3)[C@@H]3[C@@H](OC(=O)c4ccco4)[C@@]14O[C@@]3(C)COC(=O)c1cccnc1C(C)C(C)C(=O)O[C@@H]([C@H](OC(C)=O)[C@@H]2OC(C)=O)[C@]4(C)O (some centres undefined) [HYPONINE E] | 1.95 µg/mL (≈ 2.12 µM) | 0.17 µg/mL (≈ 0.185 µM) | 11.3 | –
13 | CC(=O)OC[C@]12[C@H](OC(C)=O)[C@H](OC(C)=O)[C@@H]3[C@@H](OC(C)=O)[C@@]14O[C@@]3(C)COC(=O)c1cccnc1C(C)C(C)C(=O)O[C@@H]([C@H](OC(=O)c1ccco1)[C@@H]2OC(C)=O)[C@]4(C)O (some centres undefined) [HYPONINE F] | > 100 µg/mL | 35.2 µg/mL (≈ 41 µM) | > 2.84 | –
14 | CC(=O)OC[C@]12[C@H](OC(C)=O)[C@H](OC(C)=O)[C@@H]3[C@@H](O)[C@@]14O[C@@]3(C)COC(=O)c1cccnc1C(C)C(C)C(=O)O[C@@H]([C@H](OC(C)=O)[C@@H]2OC(C)=O)[C@]4(C)O (some centres undefined) [NEOEUONYMINE] | > 100 µg/mL | 0.884 µg/mL (≈ 1.16 µM) | > 113 | –
15 | COC(=O)C[C@@H]1C(=O)CCC(C)C(=O)O[C@@H]2[C@@H]3[C@@H](OC(C)=O)[C@@]45O[C@@]3(C)COC(=O)c3cccnc3C(C)C(C)C(=O)O[C@@H]([C@H](OC(C)=O)[C@H](OC(C)=O)[C@@]4(COC1=O)[C@@H]2OC(C)=O)[C@]5(C)O (some centres undefined) [TRIPTONINE A] | > 100 µg/mL | 2.54 µg/mL (≈ 2.69 µM) | > 39.4 | –
16 | CC(=O)OC[C@]12[C@H](OC(C)=O)[C@H](OC(C)=O)[C@@H]3[C@@H](OC(C)=O)[C@@]14O[C@@]3(C)COC(=O)c1cccnc1CCC(C)(O)C(=O)O[C@@H]([C@H](OC(=O)c1ccccc1)[C@@H]2OC(C)=O)[C@]4(C)O (some centres undefined) [WILFORDINE] | 20 µg/mL (≈ 22.6 µM) | < 0.1 µg/mL | > 220 | –
17 | CC(=O)OC[C@]12[C@H](OC(C)=O)[C@H](OC(C)=O)[C@@H]3[C@@H](OC(C)=O)[C@@]14O[C@@]3(C)COC(=O)c1cccnc1CCC(C)C(=O)O[C@@H]([C@H](OC(=O)c1ccco1)[C@@H]2OC(C)=O)[C@]4(C)O (some centres undefined) [WILFORGINE] | > 100 µg/mL | – | – | inactive
18 | CC(=O)OC[C@]12[C@H](OC(C)=O)[C@H](OC(C)=O)[C@@H]3[C@@H](OC(C)=O)[C@@]14O[C@@]3(C)COC(=O)c1cccnc1CCC(C)C(=O)O[C@@H]([C@H](OC(=O)c1ccccc1)[C@@H]2OC(C)=O)[C@]4(C)O (some centres undefined) [WILFORINE] | > 100 µg/mL | – | – | inactive
19 | CC(=O)OC[C@]12[C@H](OC(C)=O)[C@H](OC(C)=O)[C@@H]3[C@@H](OC(C)=O)[C@@]14O[C@@]3(C)COC(=O)c1cccnc1CCC(C)(O)C(=O)O[C@@H]([C@H](OC(=O)c1ccco1)[C@@H]2OC(C)=O)[C@]4(C)O (some centres undefined) [WILFORTRINE] | > 100 µg/mL | < 0.1 µg/mL | > 1000 | –
20 | Cc1cn([C@H]2C[C@H](N=[N+]=[N-])[C@@H](CO)O2)c(=O)[nH]c1=O [ZIDOVUDINE] | – | 0.012 µg/mL (≈ 0.0449 µM) | – | –
